From US11103526B2, “Methods for treatment using small molecule potassium-sparing diuretics and natriuretics” (University of Pittsburgh—Of the Commonwealth System of …, priority 2016, dated 2021)

Legend:
DOCA-salt hypertension = assay: DOCA-salt hypertension, long-term MABP by radiotelemetry; type: in vivo, rats; conditions: for development of DOCA-salt hypertension / basal MABP: 5 mg/kg/day; for development of DOCA-salt hypertension: initiated 13 days before inducing DOCA-salt hypertension; for basal MABP: pretreatment 13 days before inducing DOCA-salt hypertension
Protocol: This example describes the effects of 8-aminoguanosine and 8-aminoguanine on DOCA-salt hypertension. Rats were instrumented for long-term and continuous measurement of arterial blood pressure by radiotelemetry as recently described (Jackson E K et al., Hypertension, 65:238-249, 2015). After at least 20 days of from the time of radiotransmitter implantation, hypertension was induced in the animals by removing one kidney, subcutaneously administering deoxycorticosterone acetate (30 mg/kg twice weekly), and providing 1% NaCl as drinking water (i.e., DOCA-salt hypertension). At this time, some animals were also randomized to receive either drinking water without 8-aminoguanosine or drinking water containing 8-aminoguanosine (10 mg/kg/day). In two other experiments, 8-aminoguanosine ([…]) or 8-aminoguanine (5 mg/kg/day) was administered 13 days before DOCA-salt hypertension was induced.
Results. Three studies were conducted to assess the effects of 8-aminoguanosine and 8-aminoguanine on DOCA-salt hypertension. In one study, DOCA-salt hypertension was induced at the same time that treatment with 8-aminoguanosine (10 mg/kg/day) was initiated. In two other studies, treatment with 8-aminoguanosine (5 mg/kg/day) or 8-aminoguanine (5 mg/kg/day) was initiated 13 days before inducing DOCA-salt hypertension. Treatments were maintained for the duration of the studies, and the MABP was continuously monitored by radiotelemetry. As shown in FIGS. 10A-10C, 8-aminoguanosine at 10 mg/kg/day prevented DOCA-salt hypertension.

[1] = system: Dahl salt-sensitive rats (Dahl SS); assay: Long-term MABP in Dahl salt-sensitive rats; type: in vivo; conditions: 10 mg/kg/day in drinking water; 8% NaCl diet
Description: This example describes the long-term effects of 8-aminoguanine (FIG. 11A) and 8-aminoguanosine (FIG. 11B) on mean arterial blood pressure (MABP) in Dahl salt-sensitive rats (Dahl SS). Dahl SS are a well-established model of salt-sensitive hypertension. All animals were instrumented for long-term measurement of MABP by radiotelemetry as previously described (Jackson E K et al., Hypertension, 65:238-249, 2015). Group 1 Dahl SS received only normal drinking water, whereas Group 2 received normal drinking water for 7 days and then were provided drinking water containing either 8-aminoguanine or 8-aminoguanosine (10 mg/kg/day) for the remainder of the study. The experiment was divided into two phases (indicated by the boxes). During phase 1, all rats received a low-salt (0.3% NaCl) diet. During phase 2, all animals received a high-salt (8% NaCl) diet. The study was continued until all animals expired, so the sample size decreases with time. The blood pressures of the 8-aminoguanine- and 8-aminoguanosine-treated rats were obtainable for a longer period of time because they survived longer. […] Therefore, any stroke and survival benefit for 8-aminoguanosine cannot be attributed to changes in MABP. Why 8-aminoguaine, but not 8-aminoguanosine, lowers MABP in Dahl SS on a high-salt diet is currently unknown, but may be due to different pharmacokinetics of the compounds in this rat strain.

[2] = system: spontaneously hypertensive rats (SHR); assay: Long-term MABP in spontaneously hypertensive rats; type: in vivo; conditions: 5 mg/kg/day in drinking water; significant during weeks 2-5
Description: This example describes the long-term effects of 8-aminoguanine (FIGS. 12A-12B) and 8-aminoguanosine (FIGS. 13A-13B) on mean arterial blood pressure (MABP) in spontaneously hypertensive rats (SHR). SHR are a well-established animal model of genetic hypertension that is not salt sensitive. All animals were instrumented for long-term measurement of MABP by radiotelemetry as previously described (Jackson E K et al., Hypertension, 65:238-249, 2015). Group 1 SHR received only normal drinking water; whereas Group 2 received normal drinking water for 7 days, and then were provided drinking water containing 8-aminoguanine or 8-aminoguanosine (5 mg/kg/day) for the remainder of the study.

[3] = system: obese ZDSD (metabolic syndrome); assay: Glycated hemoglobin (HbA1C) in obese ZDSD at end of diabetogenic diet; type: in vivo, Zucker Diabetic Sprague Dawley rats; conditions: chronic treatment 10 mg/kg/day
Description: This example describes the long-term effects of 8-aminoguanine on (FIG. 18) on glycated hemoglobin (HbA1C) levels in blood from rats with the metabolic syndrome (i.e., obese ZDSD) at the end of a diabetogenic diet. Obese ZDSD are a recently developed model (developed by PreClinOmics) of metabolic syndrome that have a mild elevation of MABP and have dyslipidemia, diabetes, and obesity.

anesthetized rats = assay: Protocol 3: intrarenal artery infusion, ipsilateral versus contralateral kidney (Example 13); type: in vivo, male Sprague-Dawley rats; conditions: for MABP / renal blood flow (RBF) / urinary excretion of glucose, ipsilateral versus contralateral kidney / urinary excretion of potassium, ipsilateral versus contralateral kidney / urinary excretion of sodium, ipsilateral versus contralateral kidney / urine volume, ipsilateral versus contralateral kidney: intrarenal artery infusion 0.1, 0.3 and 1 μmoles/kg/min; for urinary excretion of glucose, ipsilateral versus contralateral kidney / urinary excretion of potassium, ipsilateral versus contralateral kidney / urinary excretion of sodium, ipsilateral versus contralateral kidney / urine volume, ipsilateral versus contralateral kidney: same time period
Protocol: Protocol 3. Rats were prepared similar to the Protocol 1 description, but with a few additions. For this protocol, PE-10 cannulas were inserted into both the left and right ureters for simultaneous urine collection from both kidneys. A 1 mm transit-time flow probe was also positioned on the left renal artery and connected to a flowmeter (model T-206, Transonic Systems, Inc., Ithaca, N.Y.) to continuously measure renal blood flow (RBF). As placing a flow probe on left renal artery partially denervates the kidney, both kidneys were denervated to ensure similar conditions for both kidneys. Finally, a 30-gauge needle was inserted into the lumen of the left renal artery, and an infusion of 0.9% saline at 50 μl/min was initiated.
After stabilization for one hour, urine was collected from both kidneys for 15 minutes (for urine volume, sodium, potassium, and glucose), and MABP as well as HR were time averaged during this period. In addition, RBF was recorded 5, 10, and 15 minutes into the 15-minute urine collection period and averaged. Next, the rats received an infusion into the left renal artery of 8-aminoguanine or 8-aminoguanosine at 0.1 μmoles/kg/min and 50 μl/min or of vehicle at 50 μl/min. After 10 minutes, urine was again collected for 15 minutes, and all measurements were repeated. In rats receiving 8-aminoguanine or 8-aminoguanosine, the dose of these compounds was increased to 0.3 μmoles/kg/min. After 10 minutes, urine was again collected for 15 minutes, and all measurements were repeated. The procedure was repeated once more after the dose of 8-aminoguanosine or 8-aminoguanine was increased to 1 μmole/kg/min. Sodium, potassium, and glucose were measured in all urine samples as described in Protocol 1.
Increasing doses (0, 0.1, 0.3, and 1.0 μmoles/kg/min) of 8-aminoguanosine and 8-aminoguanine were infused into the left renal artery of anesthetized rats, while MABP and RBF were monitored. The urine volume and urinary excretion of sodium, potassium, and glucose were also measured from both the infused (treated; ipsilateral) and non-infused (within animal control; contralateral) kidneys. A control group was also included with the vehicle alone infused into the left kidney.

SMILES	development of DOCA-salt hypertension (DOCA-salt hypertension)	basal MABP (DOCA-salt hypertension)	MABP in Dahl SS on a high-salt diet [1]	MABP in SHR [2]	glycated hemoglobin (HbA1C) levels in blood [3]	MABP (anesthetized rats)	renal blood flow (RBF) (anesthetized rats)	urinary excretion of glucose, ipsilateral versus contralateral kidney (anesthetized rats)	urinary excretion of potassium, ipsilateral versus contralateral kidney (anesthetized rats)	urinary excretion of sodium, ipsilateral versus contralateral kidney (anesthetized rats)	urine volume, ipsilateral versus contralateral kidney (anesthetized rats)	urine, sodium, and glucose excretion by the contralateral kidney (anesthetized rats; intrarenal artery infusion at 1 μmole/kg/min, compared with the basal level)	excretion of urine, sodium, or glucose by the contralateral kidney (anesthetized rats; intrarenal artery infusion at 0.1 and 0.3 μmoles/kg/min)	DOCA-salt hypertension (MABP) (DOCA-salt hypertension; 10 mg/kg/day in drinking water, started when hypertension was induced)
Nc1nc2[nH]c(N)nc2c(=O)[nH]1 [8-aminoguanine, 8-Aminoguanine]	markedly attenuated	did not affect	decreases MABP	antihypertensive	dramatic anti-diabetic effect	did not affect	did not affect	significantly higher	did not differ significantly	significantly higher	significantly higher	slightly increased	no effect	–
Nc1nc2c(nc(N)n2[C@@H]2O[C@H](CO)[C@@H](O)[C@H]2O)c(=O)[nH]1 [8-aminoguanosine, 8-Aminoguanosine]	markedly attenuated	did not affect	did not alter MABP	antihypertensive	significantly lowered	did not affect	did not affect	no significant differences	significantly lower	no significant differences	no significant differences	–	–	prevented
